According to PMC6044894 (ACS Omega, 2017):
Blank lines part the entries; values can stand above or below the compound they belong to. Numbered stars: 1 amine (or outer) side, 2 acyl side, 3 side chain; on linkers, the order of the positions; unused ones are H or OH. Bridge positions count the residues as written; N and C are the ends. Peptide text beside a SMILES is read from it. I, II: the chains in the order shown. * marks the point of attachment. Suberoyl = O=C(CCCCCCC(=O)[*:2])[*:1]; Octanoyl = CCCCCCCC(=O)*

How the values were obtained:
Y4R [1] = molecular target: T1, Y4R (Homo sapiens, UniProt P50391); assay: Aequorin calcium mobilization assay on CHO-hY4-Gqi5-mtAEQ cells; format: cell-based; conditions: for aequorin assay intrinsic activity α: relative to 1 μM hPP (α = 1.0)
Y1R = molecular target: T2, Y1R (Homo sapiens, UniProt P25929); assay: Radioligand competition binding assay at Y1R with 46 using MCF-7-hY1 cells
T2 sequence (P25929 1-384): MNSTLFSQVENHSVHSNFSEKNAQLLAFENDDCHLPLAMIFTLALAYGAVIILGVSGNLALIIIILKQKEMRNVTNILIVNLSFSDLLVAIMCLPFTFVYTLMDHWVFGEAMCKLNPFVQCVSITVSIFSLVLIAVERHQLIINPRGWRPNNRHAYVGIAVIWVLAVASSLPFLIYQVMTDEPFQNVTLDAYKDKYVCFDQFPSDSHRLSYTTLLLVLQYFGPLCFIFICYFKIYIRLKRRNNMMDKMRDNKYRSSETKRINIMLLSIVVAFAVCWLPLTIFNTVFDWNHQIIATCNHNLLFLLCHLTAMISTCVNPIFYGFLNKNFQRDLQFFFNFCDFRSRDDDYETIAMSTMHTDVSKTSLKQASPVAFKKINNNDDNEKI

Y2R = molecular target: T3, Y2R (Homo sapiens, UniProt P49146); format: binding
T3 sequence (P49146 1-381): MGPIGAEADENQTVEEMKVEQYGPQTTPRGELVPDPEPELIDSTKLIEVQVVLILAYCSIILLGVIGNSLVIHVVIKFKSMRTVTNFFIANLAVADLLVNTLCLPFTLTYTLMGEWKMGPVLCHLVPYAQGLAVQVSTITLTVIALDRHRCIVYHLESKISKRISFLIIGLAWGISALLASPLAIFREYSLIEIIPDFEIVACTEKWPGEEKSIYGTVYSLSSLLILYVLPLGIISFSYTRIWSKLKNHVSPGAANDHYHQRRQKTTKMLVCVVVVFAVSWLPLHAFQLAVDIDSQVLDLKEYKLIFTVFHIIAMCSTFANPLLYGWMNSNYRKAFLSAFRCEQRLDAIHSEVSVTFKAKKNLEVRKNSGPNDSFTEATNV

Y4R [2] = molecular target: T1, Y4R; assay: biochemical; format: binding
Y5R = molecular target: T4, Y5R (Homo sapiens, UniProt Q15761); format: binding
T4 sequence (Q15761 1-445): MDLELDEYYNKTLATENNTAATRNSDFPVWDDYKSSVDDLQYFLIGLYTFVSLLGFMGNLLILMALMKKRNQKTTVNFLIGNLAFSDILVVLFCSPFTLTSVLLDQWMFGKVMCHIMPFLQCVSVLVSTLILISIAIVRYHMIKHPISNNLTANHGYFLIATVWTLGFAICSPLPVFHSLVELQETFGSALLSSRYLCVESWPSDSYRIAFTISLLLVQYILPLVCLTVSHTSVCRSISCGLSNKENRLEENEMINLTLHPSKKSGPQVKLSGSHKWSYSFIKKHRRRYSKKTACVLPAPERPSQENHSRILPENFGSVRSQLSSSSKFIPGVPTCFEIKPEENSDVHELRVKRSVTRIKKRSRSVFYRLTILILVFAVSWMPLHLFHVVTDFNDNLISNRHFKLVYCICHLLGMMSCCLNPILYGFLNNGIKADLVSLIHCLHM

Y4R [3] = molecular target: T1, Y4R; assay: β-Arrestin 1 recruitment assay on HEK293T-ARRB1-Y4R cells; format: cell-based; conditions: for β-arrestin 1 assay intrinsic activity α: relative to 1 μM hPP (α = 1.0)
Y4R [4] = molecular target: T1, Y4R; assay: β-Arrestin 2 recruitment assay on HEK293T-ARRB2-Y4R cells; format: cell-based; conditions: for β-arrestin 2 assay intrinsic activity α: relative to 1 μM hPP (α = 1.0)

T1 sequence (P50391 whole entry): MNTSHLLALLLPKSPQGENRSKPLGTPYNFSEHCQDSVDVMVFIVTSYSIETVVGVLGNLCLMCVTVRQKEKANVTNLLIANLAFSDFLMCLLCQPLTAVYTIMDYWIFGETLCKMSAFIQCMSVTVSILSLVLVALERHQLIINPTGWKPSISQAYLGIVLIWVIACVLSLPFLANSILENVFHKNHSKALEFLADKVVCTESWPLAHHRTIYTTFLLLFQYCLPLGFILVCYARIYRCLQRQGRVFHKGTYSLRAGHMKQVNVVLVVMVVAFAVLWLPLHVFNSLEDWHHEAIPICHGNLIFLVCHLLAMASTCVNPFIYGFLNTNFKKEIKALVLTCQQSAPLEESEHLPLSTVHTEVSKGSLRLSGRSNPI

aequorin assay intrinsic activity α (Y4R [1]): 0.73
Compound: CC(C)C[C@H](NC(=O)[C@H](CCCNC(=N)N)NC(=O)[C@H](Cc1ccc(O)cc1)NC(=O)CCCCCCC(=O)N[C@@H](Cc1ccc(O)cc1)C(=O)N[C@@H](CCCNC(=N)N)C(=O)N[C@@H](CC(C)C)C(=O)N[C@@H](CCCNC(=N)N)C(=O)N[C@@H](Cc1ccc(O)cc1)C(N)=O)C(=O)N[C@@H](CCCNC(=N)N)C(=O)N[C@@H](Cc1ccc(O)cc1)C(N)=O [Compound 2, octanedioyl-bis(Tyr-Arg-Leu-Arg-Tyr-amide), reference compound] (I: YRLRY-NH2 / II: YRLRY-NH2; linker I:N-II:N via Suberoyl)

Compound: CCCCCCCC(=O)N[C@@H](Cc1ccc(O)cc1)C(=O)N[C@@H](CCCNC(=N)N)C(=O)N[C@@H](CC(C)C)C(=O)N[C@@H](CCCNC(=N)N)C(=O)N[C@@H](Cc1ccc(O)cc1)C(N)=O [Compound 33, Octanoyl-Tyr-Arg-Leu-Arg-Tyr-amide Bis(hydrotrifluoroacetate)] (Octanoyl-YRLRY-NH2)
Ki (Y1R): 589 ± 120 nM | Ki (Y2R): > 5000 nM | Ki (Y4R [2]): 56.9 ± 5.3 nM | increase in Y4R affinity compared to parent compound 3 (Y4R [2]; ratio of Ki values): almost six | Ki (Y5R): 3440 ± 210 nM | EC50 (Y4R [1]): 2050 ± 84 nM | aequorin assay intrinsic activity α (Y4R [1]): 0.44 | EC50 (Y4R [3]): 2200 ± 130 nM | β-arrestin 1 assay intrinsic activity α (Y4R [3]): 0.56 | EC50 (Y4R [4]): 1790 ± 1070 nM | β-arrestin 2 assay intrinsic activity α (Y4R [4]): 0.61

Compound: CC(=O)N[C@@H](CCCNC(=N)N)C(=O)N[C@@H](Cc1ccc(O)cc1)C(=O)N[C@@H](CCCNC(=N)N)C(=O)N[C@@H](CC(C)C)C(=O)N[C@@H](CCCNC(=N)N)C(=O)N[C@@H](Cc1ccc(O)cc1)C(N)=O [Compound 36, Ac-Arg-Tyr-Arg-Leu-Arg-Tyr-amide Tris(hydrotrifluoroacetate)]
Ki (Y1R): 1180 ± 380 nM | Ki (Y2R): > 5000 nM | Ki (Y5R): > 5000 nM | EC50 (Y4R [1]): 303 ± 68 nM | aequorin assay intrinsic activity α (Y4R [1]): 0.78 | EC50 (Y4R [3]): 187 ± 40 nM | β-arrestin 1 assay intrinsic activity α (Y4R [3]): 0.51 | EC50 (Y4R [4]): 140 ± 45 nM | β-arrestin 2 assay intrinsic activity α (Y4R [4]): 0.54

Compound: Ac-YRLRY-NH2 [Compound 3, Ac-Tyr-Arg-Leu-Arg-Tyr-amide, reference compound]
Ki (Y1R): > 5000 nM | Ki (Y2R): > 5000 nM | Ki (Y5R): > 5000 nM
